Results reported in patent US10865218B2, “Fluoride fluorescence probe” (The Procter & Gamble Company, priority 2017, dated 2020).

Assays:
[1] = Fluoride ion sensing: fluorescence and absorption spectra of the probes with NaF; assay type: physicochemical; settings: probe alone, before F^−
Experimental: The procedure for fluoride ion sensing is described. Stock solutions of inventive compounds R1-R3 (1 mM) are prepared in DMSO. The test solutions of the inventive compounds R1-R3 (10 μM) in […] DMSO-HEPES solution (3/2, v/v, 10 mM HEPES, pH=7.2) are prepared by placing stock solutions in 10-mL volumetric flask, and diluting with buffer solution. The resulting solutions are shaken well and incubated at room temperature for 50 minutes before recording the spectra.
Sodium fluoride (NaF) is used as a fluoride source for the fluoride ion sensing test. Stock solution of NaF (1 mM) is prepared in deionized water. The test solutions of the inventive compounds R1-R3 (10 μM) with NaF (500 μM) are prepared by placing stock solutions in 10-mL volumetric flask, and diluting with buffer solution. The resulting solutions are shaken well and incubated at room temperature for 50 minutes before recording the spectra.
UV-visible spectra are recorded on a Shimadzu UV-2550 spectrometer. Steady-state emission experiments at room temperature are measured on an Edinburgh instrument FLS-920 spectrometer with a Xe lamp as an excitation source. Unless otherwise noted, for all measurements, the excitation wavelength is 620 nm and the emission wavelength is collected from 640 to 780 nm.
The color changed from colorless to blue, which can be visible by naked eyes. The reaction mechanism is further confirmed by HR-MS analysis in aqueous solution. After treated with NaF, a new peak is appeared in the solution with almost the same HR-MS data for the three compounds (R1: 284.1214; R2: 284.1202; R3: 284.1209), which is nearly identical to the theoretical molecular mass of the MB ([M−Cl^−]^+=284.1216).

[2] = Fluorescence intensity change with pH variation; assay type: physicochemical; settings: 10 μM, before NaF
Source text: Fluorescence change of inventive compound R3 before/after treated with NaF under different pH levels are described.

SMILES	absorption and emission in visible range [1]	pH range in which the compound remains stable [2]
CN(C)c1ccc2c(c1)Sc1cc(N(C)C)ccc1N2C(=O)OCc1ccc(O[Si](c2ccccc2)(c2ccccc2)C(C)(C)C)cc1 [Compound R1, 4-((tert-butyldiphenylsilyl)oxy)benzyl 3,7-bis(dimethylamino)-10H-phenothiazine-10-carboxylate]	no absorption and emission in visible range	–
CC(C)[Si](Oc1ccc(COC(=O)N2c3ccc(N(C)C)cc3Sc3cc(N(C)C)ccc32)cc1)(C(C)C)C(C)C [Compound R2, 4-((triisopropylsilyl)oxy)benzyl 3,7-bis(dimethylamino)-10H-phenothiazine-10-carboxylate]	no absorption and emission in visible range	–
CN(C)c1ccc2c(c1)Sc1cc(N(C)C)ccc1N2C(=O)OCc1ccc(O[Si](C)(C)C(C)(C)C)cc1 [Compound R3, 4-((tert-butyldimethylsilyl)oxy)benzyl 3,7-bis(dimethylamino)-10H-phenothiazine-10-carboxylate]	no absorption and emission in visible range	2-12
